Experimental data taken from the NIST ThermoML archive (doi:10.1016/j.jct.2013.09.043).

Experiment: xn = mol fraction of the nth substance listed
Settings: 101 kPa, Liquid; for viscosity: Capillary tube (Ostwald / Ubbelohde) method; for mass density: Vibrating tube method

CCCCCC(C)O (stereo unspecified) [2-heptanol] + NC=O
Settings | mass density, 298.15 K [kg/m3] | mass density, 303.15 K [kg/m3] | mass density, 308.15 K [kg/m3] | mass density, 313.15 K [kg/m3] | viscosity, 298.15 K [mPa·s] | viscosity, 303.15 K [mPa·s] | viscosity, 308.15 K [mPa·s] | viscosity, 313.15 K [mPa·s]
x2 = 0 | 813.38 | 809.5 | 805.72 | 801.46 | 5.296 | 4.315 | 3.535 | 2.96
x2 = 0.0819 | 821.08 | 817.04 | 813.18 | 808.95 | 5.094 | 4.157 | 3.403 | 2.842
x2 = 0.1603 | 829.46 | 825.3 | 821.41 | 817.16 | 4.915 | 4.021 | 3.299 | 2.767
x2 = 0.2402 | 839.28 | 835.08 | 831.16 | 826.89 | 4.744 | 3.905 | 3.219 | 2.718
x2 = 0.3508 | 855.44 | 851.28 | 847.38 | 843.03 | 4.541 | 3.773 | 3.131 | 2.669
x2 = 0.4402 | 871.35 | 867.27 | 863.34 | 858.97 | 4.385 | 3.673 | 3.07 | 2.637
x2 = 0.567 | 900.02 | 895.95 | 891.92 | 887.52 | 4.176 | 3.543 | 2.997 | 2.607
x2 = 0.6525 | 924.85 | 920.66 | 916.51 | 912.11 | 4.035 | 3.459 | 2.952 | 2.593
x2 = 0.7403 | 957.01 | 952.58 | 948.4 | 944.03 | 3.881 | 3.363 | 2.896 | 2.571
x2 = 0.8501 | 1010.97 | 1006.37 | 1002.12 | 997.89 | 3.647 | 3.204 | 2.792 | 2.51
x2 = 0.94 | 1072.96 | 1068.47 | 1064.24 | 1059.95 | 3.446 | 3.069 | 2.701 | 2.455

CCCCC(C)O (stereo unspecified) [2-hexanol] + NC=O
Settings | mass density, 298.15 K [kg/m3] | mass density, 303.15 K [kg/m3] | mass density, 308.15 K [kg/m3] | mass density, 313.15 K [kg/m3] | viscosity, 298.15 K [mPa·s] | viscosity, 303.15 K [mPa·s] | viscosity, 308.15 K [mPa·s] | viscosity, 313.15 K [mPa·s]
x2 = 0 | 810.14 | 806.13 | 802.06 | 797.96 | 4.101 | 3.411 | 2.819 | 2.219
x2 = 0.0818 | 818.06 | 814.05 | 809.79 | 805.72 | 4.008 | 3.334 | 2.753 | 2.171
x2 = 0.1638 | 827.12 | 823.03 | 818.79 | 814.58 | 3.918 | 3.276 | 2.711 | 2.16
x2 = 0.2392 | 836.66 | 832.51 | 828.24 | 823.99 | 3.85 | 3.23 | 2.69 | 2.169
x2 = 0.3529 | 853.7 | 849.5 | 845.26 | 841.01 | 3.778 | 3.176 | 2.679 | 2.199
x2 = 0.4439 | 870.39 | 866.2 | 861.95 | 857.71 | 3.744 | 3.187 | 2.686 | 2.235
x2 = 0.5613 | 897.25 | 893.04 | 888.76 | 884.48 | 3.695 | 3.185 | 2.71 | 2.3
x2 = 0.6496 | 922.95 | 918.63 | 914.3 | 909.96 | 3.647 | 3.169 | 2.724 | 2.35
x2 = 0.743 | 957.42 | 953.01 | 948.59 | 944.27 | 3.582 | 3.144 | 2.726 | 2.392
x2 = 0.8502 | 1010.56 | 1006.13 | 1001.67 | 997.41 | 3.479 | 3.078 | 2.695 | 2.406
x2 = 0.9398 | 1072.59 | 1068.37 | 1063.89 | 1059.71 | 3.378 | 3.021 | 2.662 | 2.413
